Laboratory results from patent publication US9096500B2, “Acyl sulfonamide compounds” (Pfizer Limited, priority 2010, dated 2015).
pIC50: −log10 of the molar value. Counter-ions that a name gives are not always drawn.

Biological target: T1, Nav1.7 (or SCN9A) channel (Homo sapiens, UniProt Q15858)
T1 construct: expressed in transfected cells
Experiment: Nav1.7 (hSCN9A) electrophysiology assay, PatchXpress platform
Type: cell-based
Conditions: estimated IC50 from single point electrophysiology data, HEK cells stably expressing hSCN9A, held at V1/2 of inactivation, read-out: Nav1.7 EIC50
Procedure: The ability of the compounds of formula (I) to block the Nav1.7 (or SCN9A) channel were measured using the assay described below.
Human Embryonic Kidney (HEK) cells were transfected with an hSCN9A construct using lipofectamine reagent (Invitrogen), using standard techniques. Cells stably expressing the hSCN9A constructs were identified by their resistance to G-418 (400 μg/ml). Clones were screened for expression using the whole-cell voltage-clamp technique.
HEK cells stably transfected with hSCN9A were maintained in DMEM medium supplemented with 10% heat-inactivated fetal bovine serum and 400 μg/ml G-418 in an incubator at 37° C. with a humidified atmosphere of 10% CO2. For HTS, cells were harvested from flasks by trypsinization and replated in an appropriate multi-well plate (typically 96 or 384 wells/plate) such that confluence would be achieved within 24 hours of plating. For electrophysiological studies, cells were removed from the culture flask by brief trypsinization and re-plated at low density onto glass cover slips. Cells were typically used for electrophysiological experiments within 24 to 72 hours after plating.
Cover slips containing HEK cells expressing hSCN9A were placed in a bath on the stage of an inverted microscope and perfused (approximately 1 ml/minutes) with extracellular solution of the following composition: 138 mM NaCl, 2 mM CaCl2, 5.4 mM KCl, 1 mM MgCl2, 10 mM glucose, and 10 mM HEPES, pH 7.4, with NaOH. […] The osmolarity of the extracellular and intracellular solutions was 300 mOsm/kg and 295 mOsm/kg, respectively. All recordings were made at room temperature (22-24° C.) using AXOPATCH 200B amplifiers and PCLAMP software (Axon Instruments, Burlingame, Calif.).
hSCN9A currents in HEK cells were measured using the whole-cell configuration of the patch-clamp technique (Hamill et al., 1981). Uncompensated series resistance was typically 2 to 5 mega ohms and >85% series resistance compensation was routinely achieved. […] Current records were acquired at 20 to 50 KHz and filtered at 5 to 10 KHz.
HEK cells stably transfected with hSCN9A were viewed under Hoffman contrast optics and placed in front of an array of flow pipes emitting either control or compound-containing extracellular solutions. All compounds were dissolved in dimethyl sulfoxide to make 10 mM stock solutions, which were then diluted into extracellular solution to attain the final concentrations desired. […] The voltage-dependence of inactivation was determined by applying a series of depolarizing prepulses (8 sec long in 10 mV increments) from a negative holding potential. The voltage was then immediately stepped to 0 mV to assess the magnitude of the sodium current. Currents elicited at 0 mV were plotted as a function of prepulse potential to allow estimation of the voltage at which 50% of the channels were inactivated (midpoint of inactivation or V1/2). Compounds were tested for their ability to inhibit hSCN9A sodium channels by activating the channel with a 20 msec voltage step to 0 mV following an 8 second conditioning prepulse to the empirically determined V1/2. Compound effect (% inhibition) was determined by difference in current amplitude before and after application of test compounds. […] Inhibition values <20% and >80% were excluded from the calculation.
Electrophysiological assays were conducted with PatchXpress 7000 hardware and associated software (Molecular Devices Corp). All assay buffers and solutions were identical to those used in conventional whole-cell voltage clamp experiments described above. hSCN9A cells were grown as above to 50%-80% confluency and harvested by trypsinization. Trypsinized cells were washed and resuspended in extracellular buffer at a concentration of 1×10^6 cells/ml. The onboard liquid handling facility of the PatchXpress was used for dispensing cells and application of test compounds.

T1 sequence (Q15858 whole entry): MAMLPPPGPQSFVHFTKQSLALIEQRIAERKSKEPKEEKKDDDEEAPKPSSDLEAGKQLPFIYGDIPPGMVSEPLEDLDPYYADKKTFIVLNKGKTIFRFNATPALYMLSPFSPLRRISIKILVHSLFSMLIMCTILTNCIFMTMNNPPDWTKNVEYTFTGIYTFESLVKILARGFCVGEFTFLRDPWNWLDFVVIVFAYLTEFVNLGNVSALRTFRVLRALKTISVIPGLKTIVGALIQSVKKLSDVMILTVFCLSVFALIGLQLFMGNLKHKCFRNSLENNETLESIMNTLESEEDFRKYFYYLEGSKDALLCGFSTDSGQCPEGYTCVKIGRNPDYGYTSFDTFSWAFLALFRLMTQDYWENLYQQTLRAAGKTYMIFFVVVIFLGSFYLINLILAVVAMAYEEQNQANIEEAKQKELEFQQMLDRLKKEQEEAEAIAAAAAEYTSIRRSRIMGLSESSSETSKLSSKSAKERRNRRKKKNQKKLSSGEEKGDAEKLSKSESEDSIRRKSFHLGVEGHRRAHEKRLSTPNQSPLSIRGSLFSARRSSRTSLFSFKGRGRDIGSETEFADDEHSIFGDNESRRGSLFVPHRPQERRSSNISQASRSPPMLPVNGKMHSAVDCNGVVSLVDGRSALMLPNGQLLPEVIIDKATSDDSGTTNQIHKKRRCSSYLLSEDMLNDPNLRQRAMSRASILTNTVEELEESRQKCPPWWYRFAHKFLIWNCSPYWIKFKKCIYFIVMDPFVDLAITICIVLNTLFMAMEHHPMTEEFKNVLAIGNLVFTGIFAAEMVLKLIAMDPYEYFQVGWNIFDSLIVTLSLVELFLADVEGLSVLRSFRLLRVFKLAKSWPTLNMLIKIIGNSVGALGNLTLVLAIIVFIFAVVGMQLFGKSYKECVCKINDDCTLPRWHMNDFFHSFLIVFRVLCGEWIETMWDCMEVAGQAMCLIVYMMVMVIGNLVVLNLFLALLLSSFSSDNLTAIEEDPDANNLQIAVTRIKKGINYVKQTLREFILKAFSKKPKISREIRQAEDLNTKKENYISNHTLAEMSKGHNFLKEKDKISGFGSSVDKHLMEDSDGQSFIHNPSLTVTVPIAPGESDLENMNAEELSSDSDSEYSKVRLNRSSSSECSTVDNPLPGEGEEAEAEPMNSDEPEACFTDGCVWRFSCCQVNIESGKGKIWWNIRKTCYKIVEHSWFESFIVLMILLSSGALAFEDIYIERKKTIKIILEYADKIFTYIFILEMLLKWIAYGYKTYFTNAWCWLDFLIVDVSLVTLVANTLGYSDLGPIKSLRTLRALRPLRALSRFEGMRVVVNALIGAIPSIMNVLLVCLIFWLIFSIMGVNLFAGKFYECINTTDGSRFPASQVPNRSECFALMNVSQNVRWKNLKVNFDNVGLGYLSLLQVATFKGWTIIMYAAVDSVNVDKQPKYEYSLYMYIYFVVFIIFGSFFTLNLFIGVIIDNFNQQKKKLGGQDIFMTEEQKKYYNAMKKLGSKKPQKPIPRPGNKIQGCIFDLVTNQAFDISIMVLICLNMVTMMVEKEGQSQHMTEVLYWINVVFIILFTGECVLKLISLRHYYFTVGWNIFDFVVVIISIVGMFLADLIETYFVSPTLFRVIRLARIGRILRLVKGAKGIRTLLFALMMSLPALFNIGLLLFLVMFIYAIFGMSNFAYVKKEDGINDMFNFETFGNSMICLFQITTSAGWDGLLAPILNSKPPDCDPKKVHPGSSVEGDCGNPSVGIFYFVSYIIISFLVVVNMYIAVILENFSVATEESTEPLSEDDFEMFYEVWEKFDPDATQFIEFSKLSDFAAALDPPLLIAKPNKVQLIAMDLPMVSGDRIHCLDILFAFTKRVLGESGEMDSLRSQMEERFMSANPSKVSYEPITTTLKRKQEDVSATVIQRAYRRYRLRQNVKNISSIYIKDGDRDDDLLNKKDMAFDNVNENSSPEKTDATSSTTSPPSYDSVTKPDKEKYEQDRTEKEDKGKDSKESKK

Row | Structure (SMILES) | pIC50
1 | CS(=O)(=O)NC(=O)c1cc(Cl)c(COc2ccc(Cl)c(Cl)c2)cc1F [Example 1, 5-Chloro-4-[(3,4-dichlorophenoxy)methyl]-2-fluoro-N-(methylsulfonyl)benzamide] | 8.02
2 | CS(=O)(=O)NC(=O)c1cc(F)c(COc2ccc(C(F)(F)F)c(Cl)c2)cc1F [Example 2, 4-{[3-Chloro-4-(trifluoromethyl)phenoxy]methyl}-2,5-difluoro-N-(methylsulfonyl)benzamide] | 7.19
3 | CS(=O)(=O)NC(=O)c1ccc(OCc2ccc(Cl)c(Cl)c2)cc1 [Example 3] | 6.54
4 | Cn1nc(C(F)(F)F)cc1-c1ccc(OCc2ccc(C(=O)NS(C)(=O)=O)cc2)cc1 [Example 4, N-(Methylsulfonyl)-4-({4-[1-methyl-3-(trifluoromethyl)-1H-pyrazol-5-yl]phenoxy}methyl)benzamide diethylamine salt] | 5.92
5 | CS(=O)(=O)NC(=O)c1ccc(OCc2cccc3ccccc23)c(C#N)c1 [Example 5, 3-Cyano-N-(methylsulfonyl)-4-(1-naphthylmethoxy)benzamide] | 5.77
6 | CS(=O)(=O)NC(=O)c1ccc(OCc2ccccc2OC(F)(F)F)c(Cl)c1 [Example 6, 3-Chloro-N-(methylsulfonyl)-4-{[2-(trifluoromethoxy)benzyl]oxy}benzamide] | 5.89
7 | COc1cccc(OCc2ccc(C(=O)NS(C)(=O)=O)cc2)c1 [Example 8, 4-[(3-Methoxyphenoxy)methyl]-Nethylsulfonyl)benzamide diethylamine salt] | 5.16
8 | CS(=O)(=O)NC(=O)c1cc(F)c(OCc2ccc(Cl)c(Cl)c2)cc1F [Example 9, 4-[(3,4-Dichlorobenzyl)oxy]-2,5-difluoro-N-(methylsulfonyl)benzamide] | 6.17
9 | CS(=O)(=O)NC(=O)c1cc(F)c(OCc2ccc(C(F)(F)F)c(Cl)c2)cc1F [Example 10, 4-(3-Chloro-4-(trifluoromethyl)benzyloxy)-2,5-difluoro-N-(methylsulfonyl)benzamide] | 5.82
10 | COc1cc(OCc2ccc(Cl)c(Cl)c2)ccc1C(=O)NS(C)(=O)=O [Example 12, 4-[(3,4-Dichlorobenzyl)oxy]-2-methoxy-N-(methylsulfonyl)benzamide] | 4.92
11 | COc1ccccc1OCc1cc(F)c(C(=O)NS(C)(=O)=O)cc1F [Example 14, 2,5-Difluoro-4-((2-methoxyphenoxy)methyl)-N-(methylsulfonyl)benzamide] | 5.09
12 | COc1cc(Cl)ccc1OCc1cc(F)c(C(=O)NS(C)(=O)=O)cc1F [Example 15, 4-((4-Chloro-2-methoxyphenoxy)methyl)-2,5-difluoro-N-(methylsulfonyl)benzamide Diethylamine salt] | 5.77
13 | CS(=O)(=O)NC(=O)c1ccc(COc2cccc(Cl)c2)cc1 [Example 16, 4-((3-Chlorophenoxy)methyl)-N-(methylsulfonyl)benzamide Diethylamine salt] | 6.12
14 | CS(=O)(=O)NC(=O)c1ccc(COc2ccc(C#N)cc2)cc1 [Example 17, 4-((4-Cyanophenoxy)methyl)-N-(methylsulfonyl)benzamide] | 5.08
15 | CS(=O)(=O)NC(=O)c1ccc(COc2ccc(Cl)cc2)cc1 [Example 18, 4-((4-Chlorophenoxy)methyl)-N-(methylsulfonyl)benzamide Diethylamine salt] | 6.03
16 | COc1cc(C(=O)NS(C)(=O)=O)ccc1COc1ccc(Cl)c(Cl)c1 [Example 19, 4-((3,4-Dichlorophenoxy)methyl)-3-methoxy-N-(methylsulfonyl)benzamide] | 7.24
17 | CS(=O)(=O)NC(=O)c1ccc(OCc2ccccc2)cc1 [Example 20, 4-(Benzyloxy)-N-(methylsulfonyl)benzamide Diethylamine salt] | 5.62

Row | Structure (SMILES) | pIC50
18 | CS(=O)(=O)NC(=O)c1ccc(OCc2cccc(Br)c2)cc1 [Example 21, 4-(3-Bromobenzyloxy)-N-(methylsulfonyl)benzamide] | 6.15
19 | Cc1nccn1-c1ccc(COc2ccc(C(=O)NS(C)(=O)=O)cc2)cc1 [Example 22, 4-(4-(2-methyl-1H-imidazol-1-yl)benzyloxy)-N-(methylsulfonyl)benzamide] | < 5.52
20 | CCC(C)S(=O)(=O)NC(=O)c1cc(F)c(COc2ccc(Cl)c(Cl)c2)cc1F (stereo not shown) [Example 23, N-(sec-Butylsulfonyl)-4-((3,4-dichlorophenoxy)methyl)-2,5-difluorobenzamide] | 6.42
21 | CS(=O)(=O)NC(=O)c1ccc(COc2ccc(Cl)cc2Cl)cc1 [Example 24, 4-((2,4-Dichlorophenoxy)methyl)-N-(methylsulfonyl)benzamide Diethylamine salt] | 6.11
22 | CCc1ccc(OCc2ccc(C(=O)NS(C)(=O)=O)cc2)cc1 [Example 25, 4-((4-Ethylphenoxy)methyl)-N-(methylsulfonyl)benzamide Diethylamine salt] | 6.14
23 | CS(=O)(=O)NC(=O)c1ccc(COc2ccc(C(F)(F)F)cc2-c2ccnnc2)cc1 [Example 26, N-(methylsulfonyl)-4-{[2-pyridazin-4-yl-4-(trifluoromethyl)phenoxy]methyl}benzamide] | 7.11
24 | CS(=O)(=O)NC(=O)c1ccc(COc2ccc(Cl)c(C(F)(F)F)c2)cc1 [Example 27, 4-{[4-Chloro-3-(trifluoromethyl)phenoxy]methyl}-N-(methylsulfonyl)benzamide] | 6.42
25 | CS(=O)(=O)NC(=O)c1ccc(COc2ccc(Cl)c(Cl)c2)cc1 [Example 28, 4-[(3,4-Dichlorophenoxy)methyl]-N-(methylsulfonyl)benzamide] | 7.24
26 | CS(=O)(=O)NC(=O)c1ccc(COc2ccc(Cl)c(Cl)c2)c(Cl)c1 [Example 29, 3-Chloro-4-((3,4-dichlorophenoxy)methyl)-N-(methylsulfonyl)benzamide Diethylamine salt] | 7.07
27 | COc1cc(COc2ccc(Cl)c(Cl)c2)ccc1C(=O)NS(C)(=O)=O [Example 30, 4-[(3,4-Dichlorophenoxy)methyl]-2-methoxy-N-(methylsulfonyl)benzamide] | 5.72
28 | COc1ccccc1OCc1ccc(C(=O)NS(C)(=O)=O)cc1 [Example 34, 4-[(2-Methoxyphenoxy)methyl]-N-(methylsulfonyl)benzamide] | 5.07
29 | CS(=O)(=O)NC(=O)c1ccc(COc2cccc(C3CCNCC3)c2)cc1 [Example 35, N-(Methylsulfonyl)-4-[(3-piperidin-4-ylphenoxy)methyl]benzamide] | < 5.52
30 | CS(=O)(=O)NC(=O)c1ccc(COc2ccc(C3CCNCC3)cc2)cc1 [Example 36, N-(methylsulfonyl)-4-[(4-piperidin-4-ylphenoxy)methyl]benzamide diethylamine salt] | < 5.52
31 | Cn1nccc1-c1ccc(OCc2ccc(C(=O)NS(C)(=O)=O)cc2)cc1 [Example 37, 4-{[4-(1-Methyl-1H-pyrazol-5-yl)phenoxy]methyl}-N-(methylsulfonyl)benzamide diethylamine salt] | < 5.52
32 | Cn1nccc1-c1cc(Cl)ccc1OCc1ccc(C(=O)NS(C)(=O)=O)cc1 [Example 38, 4-{[4-Chloro-2-(1-methyl-1H-pyrazol-5-yl)phenoxy]methyl}-N-(methylsulfonyl)benzamide diethylamine salt] | < 5.52
33 | CCc1ccc(OCc2ccc(C(=O)NS(C)(=O)=O)c(F)c2)cc1 [Example 40, 4-[(4-Ethylphenoxy)methyl]-2-fluoro-N-(methylsulfonyl)benzamide diethylamine salt] | 6.25
34 | CCc1ccc(OCc2ccc(C(=O)NS(C)(=O)=O)c(OC)c2)cc1 [Example 41, 4-[(4-Ethylphenoxy)methyl]-2-methoxy-N-(methylsulfonyl)benzamide diethylamine salt] | 5.43
